Target: T1, CfGRP94 (canine GRP94 73–754Δ41) (Canis lupus, UniProt P41148, DEL287-327, form not given)
T1 construct: gene HSP90B1
Details: geldanamycin-sensitive activity; 25 mM HEPES pH 7.5, 5 mM MgCl2, 400 mM KCl, 0.03% Tween 20, 10% glycerol
From the text: NADH-coupled ATPase assay (pyruvate kinase / lactate dehydrogenase) on CfGRP94 (canine GRP94 73–754Δ41)

T1 sequence (P41148 73-286, stated change not applied): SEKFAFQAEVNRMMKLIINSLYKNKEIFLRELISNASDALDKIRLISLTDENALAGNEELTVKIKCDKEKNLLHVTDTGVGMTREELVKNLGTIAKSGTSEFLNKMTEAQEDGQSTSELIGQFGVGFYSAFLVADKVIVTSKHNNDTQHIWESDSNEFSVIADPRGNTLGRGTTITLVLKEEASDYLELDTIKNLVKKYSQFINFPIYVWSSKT
T1 sequence (P41148 328-754, stated change not applied): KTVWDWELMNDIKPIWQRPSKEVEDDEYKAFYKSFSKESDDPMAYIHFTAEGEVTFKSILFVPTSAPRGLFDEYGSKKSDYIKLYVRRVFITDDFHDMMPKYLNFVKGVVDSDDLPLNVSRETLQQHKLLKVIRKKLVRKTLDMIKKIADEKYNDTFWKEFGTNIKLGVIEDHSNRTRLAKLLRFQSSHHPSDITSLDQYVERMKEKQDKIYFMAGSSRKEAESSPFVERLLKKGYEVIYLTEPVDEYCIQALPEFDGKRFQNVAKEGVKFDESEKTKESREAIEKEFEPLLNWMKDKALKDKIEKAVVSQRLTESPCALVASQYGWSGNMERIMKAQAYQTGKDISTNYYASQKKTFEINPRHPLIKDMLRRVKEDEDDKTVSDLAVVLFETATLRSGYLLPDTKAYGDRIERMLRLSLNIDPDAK

`Nc1ncnc2c1ncn2[C@@H]1O[C@H](COP(=O)(O)OP(=O)(O)OP(=O)(O)O)[C@@H](O)[C@H]1O` [ATP] showed a Km of 65 ± 13 µM.
